pIC50: −log10 of the molar value.
Molecular target: T1, human Cav3.2 channels (Homo sapiens, UniProt O95180)
T1 construct: human Cav3.2 channel ORF (Open Reading Frame) gene; expressed in transfected cells; host or cells: HEK293 cells (ATCC No. CRL-1573), pcDNA3.1(+) plasmid
Assay: T-type calcium blocking action: intracellular calcium (Fluo-4 AM fluorescence) in HEK293 cells steadily expressing human Cav3.2 channels
Type: cell-based
Conditions: HEK293 cells expressing human Cav3.2; KCl-stimulated calcium influx, Fluo-4 fluorescence; Tables 1 to 3
In short: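 Fluo-4 AM-loaded stable HEK293 cells were preincubated 15 min at RT with compound (0.1% DMSO final) in choline-based buffer (pH 7.3). Gramicidin was added, then KCl-induced calcium influx was read at 485/510 nm for 10 s. Percent block came from peak rise over baseline, and IC50 from log-concentration plots.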

T1 sequence (O95180 whole entry): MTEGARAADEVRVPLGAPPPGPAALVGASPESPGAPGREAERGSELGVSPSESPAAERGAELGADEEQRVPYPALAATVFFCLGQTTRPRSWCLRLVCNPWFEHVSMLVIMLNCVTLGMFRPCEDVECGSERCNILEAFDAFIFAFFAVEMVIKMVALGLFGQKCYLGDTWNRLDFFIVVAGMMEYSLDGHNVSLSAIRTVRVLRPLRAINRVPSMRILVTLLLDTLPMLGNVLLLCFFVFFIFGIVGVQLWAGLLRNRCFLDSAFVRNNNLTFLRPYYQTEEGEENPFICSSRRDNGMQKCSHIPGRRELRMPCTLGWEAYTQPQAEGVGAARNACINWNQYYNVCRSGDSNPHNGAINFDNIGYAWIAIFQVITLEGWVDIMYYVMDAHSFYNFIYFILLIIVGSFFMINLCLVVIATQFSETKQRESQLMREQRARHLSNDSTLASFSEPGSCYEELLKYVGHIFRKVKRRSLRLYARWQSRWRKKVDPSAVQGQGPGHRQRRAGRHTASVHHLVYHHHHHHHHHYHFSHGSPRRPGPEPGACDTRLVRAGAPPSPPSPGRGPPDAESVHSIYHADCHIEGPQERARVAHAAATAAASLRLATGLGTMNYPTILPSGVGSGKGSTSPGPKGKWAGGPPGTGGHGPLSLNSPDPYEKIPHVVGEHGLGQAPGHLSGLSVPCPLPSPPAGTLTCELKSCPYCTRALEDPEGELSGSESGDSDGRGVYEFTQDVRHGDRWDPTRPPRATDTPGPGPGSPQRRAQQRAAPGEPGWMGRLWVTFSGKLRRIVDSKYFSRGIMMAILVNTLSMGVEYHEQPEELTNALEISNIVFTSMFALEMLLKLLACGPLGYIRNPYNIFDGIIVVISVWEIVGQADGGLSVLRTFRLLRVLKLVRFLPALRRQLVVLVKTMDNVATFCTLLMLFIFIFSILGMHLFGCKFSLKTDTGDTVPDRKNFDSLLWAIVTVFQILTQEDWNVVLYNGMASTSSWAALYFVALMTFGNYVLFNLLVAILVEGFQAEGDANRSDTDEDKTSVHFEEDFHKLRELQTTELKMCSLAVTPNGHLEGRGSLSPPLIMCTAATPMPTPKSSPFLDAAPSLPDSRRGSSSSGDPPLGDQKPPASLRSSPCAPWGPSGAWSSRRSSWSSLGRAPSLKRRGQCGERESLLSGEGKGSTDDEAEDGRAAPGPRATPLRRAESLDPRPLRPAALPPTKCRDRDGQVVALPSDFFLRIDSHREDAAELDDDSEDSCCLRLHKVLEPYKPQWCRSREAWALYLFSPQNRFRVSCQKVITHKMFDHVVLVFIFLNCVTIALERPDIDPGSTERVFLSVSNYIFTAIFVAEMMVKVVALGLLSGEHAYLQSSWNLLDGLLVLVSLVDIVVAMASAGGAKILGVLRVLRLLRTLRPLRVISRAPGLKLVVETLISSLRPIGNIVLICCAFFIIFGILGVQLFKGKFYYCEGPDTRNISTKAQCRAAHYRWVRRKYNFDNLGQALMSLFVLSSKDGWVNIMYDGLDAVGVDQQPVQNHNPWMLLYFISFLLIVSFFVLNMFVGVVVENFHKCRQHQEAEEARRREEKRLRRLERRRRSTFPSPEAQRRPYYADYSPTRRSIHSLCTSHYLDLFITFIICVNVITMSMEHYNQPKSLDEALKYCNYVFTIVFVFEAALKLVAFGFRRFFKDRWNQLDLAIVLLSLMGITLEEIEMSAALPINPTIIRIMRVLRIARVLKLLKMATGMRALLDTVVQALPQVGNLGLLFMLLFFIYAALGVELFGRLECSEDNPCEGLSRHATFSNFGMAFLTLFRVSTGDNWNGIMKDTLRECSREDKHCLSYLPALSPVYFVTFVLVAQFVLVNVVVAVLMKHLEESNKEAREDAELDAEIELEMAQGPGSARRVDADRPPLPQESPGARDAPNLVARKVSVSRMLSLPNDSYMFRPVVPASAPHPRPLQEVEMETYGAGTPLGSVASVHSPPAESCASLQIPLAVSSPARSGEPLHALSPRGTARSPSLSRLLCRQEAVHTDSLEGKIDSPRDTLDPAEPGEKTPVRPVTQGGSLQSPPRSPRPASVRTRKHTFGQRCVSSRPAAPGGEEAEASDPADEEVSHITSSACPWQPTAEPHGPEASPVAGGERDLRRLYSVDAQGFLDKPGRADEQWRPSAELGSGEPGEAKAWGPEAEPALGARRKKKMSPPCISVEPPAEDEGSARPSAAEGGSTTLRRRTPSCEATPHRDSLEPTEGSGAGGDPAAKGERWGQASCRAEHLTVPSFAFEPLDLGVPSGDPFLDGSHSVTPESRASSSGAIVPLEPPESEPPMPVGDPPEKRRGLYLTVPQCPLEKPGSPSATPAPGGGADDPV

| SMILES | pIC50 |
| --- | --- |
| O=C(Cc1ccc(N2CCOCC2)cc1)N[C@@H]1CCN(c2nc(C(F)(F)F)cs2)C1 [Example 40, (R)-2-(4-morpholinophenyl)-N-(1-(4-(trifluoromethyl)thiazol-2-yl)pyrrolidin-3-yl)acetamide] | 6.52 |
| O=C(N[C@@H]1CCN(c2ccc(C(F)(F)F)nc2)C1)C1CC1c1c[nH]c2ccccc12 (single isomer, unassigned) [Example 66] | 7.16 |
| O=C(Cc1ccc(N2C[C@@H]3CC[C@H]2CO3)cc1)N[C@@H]1CCN(c2ccc(C(F)(F)F)nc2)C1 [Example 156, 2-(4-((1S,4S)-2-oxa-5-azabicyclo[2.2.2]octan-5-yl)phenyl)-N—((R)-1-(6-(trifluoromethyl)pyridin-3-yl)pyrrolidin-3-yl)acetamide] | 5.89 |
| O=C(Cc1ccc(C2CC2)cc1)N[C@]12CC1CN(c1cncc(C(F)(F)F)c1)C2 (stereo partly drawn) [Example 10, 2-(4-cyclopropylphenyl)-N-(3-(5-(trifluoromethyl)pyridin-3-yl)-3-azabicyclo[3.1.0]hexan-1-yl) acetamide] | 6.39 |
| O=C(Cc1ccc(C2CC2)cc1)N[C@H]1CN(c2cncc(C(F)(F)F)c2)C[C@@H]1F [Example 28, 2-(4-cyclopropylphenyl)-N-((3S,4S)-4-fluoro-1-(5-(trifluoromethyl)pyridin-3-yl)pyrrolidin-3-yl)acetamide] | 6.70 |
| O=C(N[C@@H]1CCN(c2nc(C(F)(F)F)cs2)C1)[C@H]1C[C@@H]1c1nc2ccccc2o1 [Example 47, (1S,2S)-2-(benzo[d]oxazol-2-yl)-N—((R)-1-(4-(trifluoromethyl)thiazol-2-yl)pyrrolidin-3-yl)cyclopropane-1-carboxyamide] | 6.46 |
| COc1cc(OC)nc(N2CC[C@@H](NC(=O)Cc3ccc(C4CC4)cc3)C2)n1 [Example 180, (R)-2-(4-cyclopropylphenyl)-N-(1-(4,6-dimethoxypyrimidin-2-yl)pyrrolidin-3-yl)acetamide] | 5.68 |
| NC(C(=O)N[C@@H]1CCN(c2cncc(C(F)(F)F)c2)C1)c1ccc(C2CC2)cc1 (single isomer, unassigned) [Example 137B] | 6.09 |
| O=C(N[C@H]1CCN(c2ccc(C(F)(F)F)cc2)C1)C1CC1c1nc2ccccc2[nH]1 (single isomer, unassigned) [Example 53] | 6.00 |
| Cc1nc2cc(CC(=O)N[C@@H]3CCN(c4cncc(C(F)(F)F)c4)C3)ccc2o1 [Example 153, (R)-2-(2-methylbenzo[d]oxazol-5-yl)-N-(1-(5-(trifluoromethyl)pyridin-3-yl)pyrrolidin-3-yl)acetamide] | 6.24 |
| O=C(Cc1ccc(N2CCC3(CC2)OCCO3)cc1)N[C@@H]1CCN(c2cncc(C(F)(F)F)c2)C1 [Example 101, (R)-2-(4-(1,4-dioxa-8-azaspiro[4.5]decan-8-yl)phenyl)-N-(1-(5-(trifluoromethyl)pyridin-3-yl)pyrrolidin-3-yl)acetamide] | 7.00 |
| O=C(N[C@@H]1CCN(c2cncc(C(F)(F)F)c2)C1)C1(c2ccc(C(F)(F)F)cc2)CC1 [Example 34, (R)-1-(4-(trifluoromethyl)phenyl)-N-(1-(5-(trifluoromethyl)pyridin-3-yl)pyrrolidin-3-yl)cyclopropane-1-carboxyamide] | 6.62 |
| O=C(Cc1ccc(N2CCC(F)(F)C2)cc1)N[C@@H]1CCN(c2ccc(C(F)(F)F)nc2)C1 [Example 84, (R)-2-(4-(3,3-difluoropyrrolidin-1-yl)phenyl)-N-(1-(6-(trifluoromethyl)pyridin-3-yl)pyrrolidin-3-yl)acetamide] | 6.74 |
| O=C(Cc1ccc(N2CCS(=O)(=O)CC2)cc1)N[C@@H]1CCN(c2cncc(C(F)(F)F)c2)C1 [Example 23, (R)-2-(4-(1,1-dioxidethiomorpholino)phenyl)-N-(1-(5-(trifluoromethyl)pyridin-3-yl)pyrrolidin-3-yl)acetamide] | 6.82 |
| O=C(Cc1ccc(C2CC2)cc1)N[C@@H]1CCN(c2ncc(Br)s2)C1 [Example 173, (R)—N-(1-(5-bromothiazol-2-yl)pyrrolidin-3-yl)-2-(4-cyclopropylphenyl)acetamide] | 5.96 |
| O=C(Cc1ccc(N2CC3(COC3)C2)cc1)N[C@@H]1CCN(c2cncc(C(F)(F)F)c2)C1 [Example 46, (R)-2-(4-(2-oxa-6-azaspiro[3.3]heptan-6-yl)phenyl)-N-(1-(5-(trifluoromethyl)pyridin-3-yl)pyrrolidin-3-yl) acetamide] | 6.59 |
| O=C(Cc1ccc(C2CC2)cc1)N[C@@H]1CCN(c2cccc(C(F)(F)F)n2)C1 [Example 179, (R)-2-(4-cyclopropylphenyl)-N-(1-(6-(trifluoromethyl)pyridin-2-yl)pyrrolidin-3-yl)acetamide] | 6.62 |
| CN(C)c1ccc(CC(=O)N[C@@H]2CCN(c3cncc(C(F)(F)F)c3)C2)cc1 [Example 29, (R)-2-(4-(dimethylamino)phenyl)-N-(1-(5-(trifluoromethyl)pyridin-3-yl)pyrrolidin-3-yl)acetamide] | 7.40 |
| O=C(Cc1ccc(C2CC2)cc1)N[C@@H]1CCN(c2nc(C(F)(F)F)co2)C1 [Example 80, (R)-2-(4-cyclopropylphenyl)-N-(1-(4-(trifluoromethyl)oxazol-2-yl)pyrrolidin-3-yl)acetamide] | 6.14 |
| O=C(Cc1ccc(N2CCCC2)cc1)N[C@@H]1CCN(c2cncc(C(F)(F)F)c2)C1 [Example 87, (R)-2-(4-(pyrrolidin-1-yl)phenyl)-N-(1-(5-(trifluoromethyl)pyridin-3-yl)pyrrolidin-3-yl)acetamide] | 8.27 |
| O=C(Cc1ccc(C2CC2)cc1)N[C@@H]1CCN(c2ccc(F)c(C(F)(F)F)c2)C1 [Example 174, (R)-2-(4-cyclopropylphenyl)-N-(1-(4-fluoro-3-(trifluoromethyl)phenyl)pyrrolidin-3-yl)acetamide] | 6.70 |
| COc1ncc(N2CC[C@@H](NC(=O)Cc3ccc(C(C)C)cc3)C2)cc1C(F)(F)F [Example 110, (R)-2-(4-isopropylphenyl)-N-(1-(6-methoxy-5-(trifluoromethyl)pyridin-3-yl)pyrrolidin-3-yl)acetamide] | 6.54 |
| NC(=O)C1(NC(=O)Cc2ccc(C3CC3)cc2)CCN(c2cncc(C(F)(F)F)c2)C1 (stereo not drawn) [Example 21, 3-(2-(4-cyclopropylphenyl)acetamido)-1-(5-(trifluoromethyl)pyridin-3-yl)pyrrolidine-3-carboxyamide] | 5.92 |
| CC(=O)N1CCN(c2ccc(CC(=O)N[C@@H]3CCN(c4cncc(C(F)(F)F)c4)C3)cc2)CC1 [Example 95, (R)-2-(4-(4-acetylpiperazin-1-yl)phenyl)-N-(1-(5-(trifluoromethyl)pyridin-3-yl)pyrrolidin-3-yl)acetamide] | 6.64 |
| O=C(Cc1ccc(C2CC2)cc1)N[C@@H]1CCN(c2cc(F)cc(C(F)(F)F)c2)C1 [Example 136, (R)-2-(4-cyclopropylphenyl)-N-(1-(3-fluoro-5-(trifluoromethyl)phenyl)pyrrolidin-3-yl)acetamide] | 5.82 |
| Cc1ncc(N2CC[C@@H](NC(=O)Cc3ccc(C4CC4)cc3)C2)cc1C(F)(F)F [Example 18, (R)-2-(4-cyclopropylphenyl)-N-(1-(6-methyl-5-(trifluoromethyl)pyridin-3-yl)pyrrolidin-3-yl)acetamide] | 7.05 |
| CC(C)c1ccc(CC(=O)N[C@@H]2CCN(c3cnc(C(F)(F)F)nc3)C2)cc1 [Example 3, (R)-2-(4-isopropylphenyl)-N-(1-(2-(trifluoromethyl)pyrimidin-5-yl)pyrrolidin-3-yl)acetamide] | 6.07 |
